Laboratory results reported in patent US9980982B2, “HE4 based therapy for malignant disease” (Women & Infants Hospital of Rhode Island, priority 2011, dated 2018).
“Also recorded” adds a separate entry of the source.

Key:
HE4 [1] = experiment: HE4 levels in SKOV-3 cell lysates and media by sandwich ELISA; format: cell-based, Human; settings: cytotoxic agents, 24 hrs, serum free DMEM; versus untreated controls
Experimental: Various agents were examined by RT-PCR or by a sandwich ELISA. […] HE4 levels in cell lysates and media were evaluated by a sandwich ELISA.
Cells were grown for 24 h in 100 mm cell culture dishes (Corning, New York, N.Y.), supernatant collected and lysates of washed and scraped cells prepared as described previously (Lange T S et al., 2007Chem Biol Drug Design, 70:302-10). Total protein of lysates was quantitated (BioRad protein estimation kit, Hercules, Calif.), and HE4 levels were determined using the HE4 EIA assay (Fujirebio Diagnostics, Malvern, Pa.), a solid-phase, non-competitive immunoassay using two mouse monoclonal antibodies, directed against two epitopes in the C-WFDC domain. Calibration curves were used to measure HE4 concentrations in both cell lysates and culture media allowing for the calculation of production and secretion of HE4 in pmol/g total cellular protein.
FIG. 15 is a bar chart showing that treatment with growth factors and cytokines affect the HE4 levels in ovarian cancer cells. SKOV-3 cells (1 million each) were seeded in 100 mm dishes and incubated overnight. The cells were treated with an array of factors (IL-6, Insulin, TNFa, EGF) and incubated for another 6 hours. The media was collected and cells were lysed using the cell lysis buffer. The HE4 content in the media or in the cell-lysate was examined by a HE4 sandwich ELISA kit.

[2] = system: HE4 overexpressing clone-1 xenograft; experiment: Cisplatin response and Kaplan-Meier analysis of animals xenografted with HE4 overexpressing clones; format: in vivo, nude mice; settings: cisplatin treated, within 14 days
Experimental: To ascertain the role of HE4 in the progression of ovarian cancer, the xenografts of stable HE4 overexpressing (pCMV6-HE4) clones, SKOV-3 (wild type) and the null vector clones (pCMV6) cells were raised in nude mice (strain 088, Nu/Nu). The tumor size was measured weekly.
The survival rate, tumor size, and the cisplatin or vehicle treatment response of animals xenografted with HE4 overexpressing clone-1, parental SKOV-3, and null vector clones was determined. […] Therefore, HE4 overexpression imparted chemoresistance against cisplatin treatment in animals.

[3] = system: HE4 overexpressing SKOV-3 clones HE4C1, -C3, -C7; experiment: MTS cell viability assay, HE4 overexpressing SKOV-3 clones; format: cell-based, Human; settings: for response of HE4 overexpressing SKOV-3 clones to drug treatment (viability, words): 24 h, clones HE4C1, -C3, -C7, compared to parental SKOV-3
Experimental: An HE4 overexpressing vector for stable expression was engineered by inserting a coding sequence of human WAP four-disulfide core domain 2 (WFDC2) cDNA into a multiple cloning site of an eukaryotic expression vector, pCMV6-entry (Origene, Rockville, Md.). Transfection of the constructs in SKOV-3 cells was performed using Lipofectamine 2000 (Invitrogen, Carlsbad, Calif.) according to the manufacturer's instructions. Stably transfected cells were selected by resistance to G-418 (500 μg/ml) (Research Products International, Mount Prospect, Ill.), applied 48 h after transfection and continued during cell culture. G-418 resistant cells were resuspended (density 5 cells/ml) in complete medium/G-418 and seeded as 200 μl/well on a 96 well cell culture plate (Corning, New York, N.Y.). Cells growing from single colonies (cloned; stable transfection) were isolated.
(§1) Cell growth and viability of cell lines (complete medium, 24 h incubation) was determined by the CellTiter 96® AQueous One Solution Assay (Promega Corp, Madison, Wis.) following the manufacturer's recommendations with modifications (Lange T S et al., 2008 PLOS One, 3(5):e2303). Experiments are expressed as the mean of triplicate determinations (X±SD) of a representative experiment in OD (cell growth) or % of absorbance by drug-treated versus untreated cells [=100%] (cell viability). Cisplatin (CDDP), paclitaxel, doxorubicin and camptothecin (CPT) were purchased from (Sigma Aldrich, St. Louis, Mo.).
(§2) To analyze the potential biological relevance of elevated HE4 production for ovarian cancer cells the efficacy of commonly used anticancer drugs was examined in a viability assay (FIG. 5). SKOV-3 clones or parental cells were treated with cisplatin, paclitaxel, doxorubicin, or camptothecin for 24 h in various concentrations as indicated and the cytotoxicity evaluated.

PI-3K = experiment: In vitro immunoprecipitation lipid kinase (PIP-3) assay; format: cell-based, Human; settings: HE4 overexpressing clones, Cisplatin treatment
Experimental: FIG. 18 is a series of photographs and a schematic illustrating that HE4 regulates EGFR/PI-3K signaling in ovarian cancer cells. […] (C) Mechanistic model of HE4 overexpression induced chemoresistance against Cisplatin via activation of EGFR and PI-3K and its signaling product PIP-3.
HE4 over-expression causes deactivation of pro-survival mitochondrial proteins in SKOV-3 cells. Ovarian cancer cells (SKOV-3) (1 million) were seeded in petri dishes and allowed to adhere overnight in DMEM media supplemented with 10% Fetal Bovine serum without antibiotic. In a separate tube, HE4 cDNA was complexed with lipofectamine (Invitrogen) for 1 min-2 hrs in Optimem media (Invitrogen). HE4 cDNA Lipofectamine complex dissolved in Optimem media were added to the cells. Lipofectamine and no drug were used as control. At different time points (4 hrs, 9 hrs and 24 hr), cells were collected and lysed using lysis buffer. […] Effect of HE4 activation on PIP2-PIP3 conversion was assessed by lipid kinase assay (Yano N. et al. Biochem. J. (2009) 423 (129-143).
A panel of stable HE4 overexpressing ovarian cancer SKOV-3 cell lines were developed by incorporation of pCMV6-HE4 vector. […] The cell viability was measured by MTS assay. Basal reactive oxygen species (ROS) production were measured by FACS analysis. In vitro Phosphoinositide-3-kinase (PI-3K) activity was measured by an immuno-precipitation PIP-3 assay. […]

DNA = experiment: ICP-MS analysis of Cisplatin binding to DNA in cells; format: cell-based, Human; settings: HE4+ clones versus parental SKOV-3 cells
Experimental: A panel of stable HE4 overexpressing ovarian cancer SKOV-3 cell lines were developed by incorporation of pCMV6-HE4 vector. Inducible HE4 overexpression was achieved by pTet-Off vector (VP 16 vector). The cell viability was measured by MTS assay. Basal reactive oxygen species (ROS) production were measured by FACS analysis. In vitro Phosphoinositide-3-kinase (PI-3K) activity was measured by an immuno-precipitation PIP-3 assay. An Inductively Coupled Plasma-Mass spectrometry (IPC-MS) analysis was carried out to estimate Cisplatin binding to DNA in cells. Mitochondria, rough ER and myelin figures were examined by Electron microscopy (EM). The screening of in-house library of compounds was carried out by MTS assay.

HE4 [4] = experiment: HE4 secretion levels in xenografted animals by EIA ELISA; format: in vivo, nude mice; settings: cisplatin 5 mg/kg bwt
Experimental: Because HE4 is a secretory protein, the secretion levels of HE4 were measured in animals by an EIA ELISA (Fujirebio Inc).

SKOV-3 cells = experiment: MTS cell viability assay, parental/wild-type SKOV-3 cells; format: cell-based, Human; settings: 24 h; paclitaxel 6.25, 12.5 or 25 nM; cisplatin 40 or 80 μM
Experimental: as §1, §2

Question: What does the source list for `N.N.[Cl][Pt][Cl]` [cisplatin]?
Answer: effect on HE4 levels in SKOV-3 (HE4 [1]): suppressed HE4 levels; animals that reached terminal tumor size (≥14 mm) [2]: ~60%; response of HE4 overexpressing SKOV-3 clones to drug treatment (viability, words) [3]: two clones did not respond; also recorded: significantly reduced response; response of HE4 overexpressing SKOV-3 clones to drug treatment (viability, words) ([3]; listed as Cisplatin): significantly reduced response; sensitivity of clone HE4C1 to cisplatin ([3]; HE4C1, only at 80 μM): minor sensitivity; fold chemoresistance against cisplatin ([3]; HE4C1 compared to parental and null vector cells): 2-4 fold; fold lower response / loss of efficacy / resistance of HE4 overexpressing SKOV-3 clones compared to parental SKOV-3 ([3]; cell viability assay): 20 fold; effect on PIP-3 synthesis (PI-3K): further enhancement of PIP-3 synthesis; Cisplatin binding to DNA (DNA): reduced Cisplatin binding to DNA; HE4 levels in cisplatin treated groups versus vehicle treated animals (HE4 [4]): did not differ significantly; also recorded: not significantly different; effect on viability of wild-type SKOV-3 cells (SKOV-3 cells): reduced the viability of wild-type SKOV-3 cells drastically
